Measured values: ChEMBL document CHEMBL4665759, “Discovery of substituted 3H-pyrido[2,3-d]pyrimidin-4-ones as potent, biased, and orally bioavailable sst2 agonist” (Bioorg Med Chem Lett, 2020)

Assays:
[1] = Cmax in Sprague-Dawley rat at 10 mg/kg, po; assay type: ADME, organism-based; set-up: route oral, dose 10 mg/kg; details: in vivo
[2] = Observed clearance in Sprague-Dawley rat at 5 mg/kg, iv; assay type: ADME, organism-based; details: in vivo
[3] = Half life in Sprague-Dawley rat at 5 mg/kg, iv; assay type: ADME, organism-based; details: in vivo
[4] = molecular target: Somatostatin receptor type 3 (Homo sapiens, UniProt P32745); assay: Agonist activity at human SST3
[5] = Oral bioavailability in Sprague-Dawley rat at 10 mg/kg; assay type: ADME, organism-based; details: in vivo
[6] = AUC (0 to infinity) in Sprague-Dawley rat at 10 mg/kg, po; assay type: ADME, organism-based; set-up: time infinity, route oral, dose 10 mg/kg; details: in vivo
[7] = molecular target: Somatostatin receptor type 1 (Homo sapiens, UniProt P30872); assay: Agonist activity at human SST1
[8] = molecular target: Cytochrome P450 3A4 (Homo sapiens, UniProt P08684); assay: Inhibition of CYP3A4 (unknown origin); assay type: ADME
[9] = molecular target: Cytochrome P450 2C9 (Homo sapiens, UniProt P11712); assay: Inhibition of CYP2C9 (unknown origin); assay type: ADME
[10] = molecular target: Cytochrome P450 2C19 (Homo sapiens, UniProt P33261); assay: Inhibition of CYP2C19 (unknown origin); assay type: ADME
[11] = Volume of distribution at steady state in Sprague-Dawley rat at 5 mg/kg, iv; assay type: ADME, organism-based; details: in vivo, read-out: Vdss
[12] = molecular target: Voltage-gated inwardly rectifying potassium channel KCNH2 (Homo sapiens, UniProt Q12809); assay: Inhibition of human ERG
[13] = system: Rattus norvegicus; assay: Suppression of growth hormone production in GHRH-challenged sc dosed Sprague-Dawley rat plasma administered GHRH at 1 to 8 hrs post dose and measured 5 mins after each GHRH challenge by sandwich ELISA; assay type: functional, organism-based; details: dose mg/kg 0.1-10, time hrs 1-8
[14] = molecular target: Somatostatin receptor type 5 (Homo sapiens, UniProt P35346); assay: Agonist activity at human SST5
[15] = Half life in rat liver microsomes; assay type: ADME, Microsome
[16] = Half life in human liver microsomes; assay type: ADME, Microsome

Voltage-gated inwardly rectifying potassium channel KCNH2, sequence (Q12809 whole entry): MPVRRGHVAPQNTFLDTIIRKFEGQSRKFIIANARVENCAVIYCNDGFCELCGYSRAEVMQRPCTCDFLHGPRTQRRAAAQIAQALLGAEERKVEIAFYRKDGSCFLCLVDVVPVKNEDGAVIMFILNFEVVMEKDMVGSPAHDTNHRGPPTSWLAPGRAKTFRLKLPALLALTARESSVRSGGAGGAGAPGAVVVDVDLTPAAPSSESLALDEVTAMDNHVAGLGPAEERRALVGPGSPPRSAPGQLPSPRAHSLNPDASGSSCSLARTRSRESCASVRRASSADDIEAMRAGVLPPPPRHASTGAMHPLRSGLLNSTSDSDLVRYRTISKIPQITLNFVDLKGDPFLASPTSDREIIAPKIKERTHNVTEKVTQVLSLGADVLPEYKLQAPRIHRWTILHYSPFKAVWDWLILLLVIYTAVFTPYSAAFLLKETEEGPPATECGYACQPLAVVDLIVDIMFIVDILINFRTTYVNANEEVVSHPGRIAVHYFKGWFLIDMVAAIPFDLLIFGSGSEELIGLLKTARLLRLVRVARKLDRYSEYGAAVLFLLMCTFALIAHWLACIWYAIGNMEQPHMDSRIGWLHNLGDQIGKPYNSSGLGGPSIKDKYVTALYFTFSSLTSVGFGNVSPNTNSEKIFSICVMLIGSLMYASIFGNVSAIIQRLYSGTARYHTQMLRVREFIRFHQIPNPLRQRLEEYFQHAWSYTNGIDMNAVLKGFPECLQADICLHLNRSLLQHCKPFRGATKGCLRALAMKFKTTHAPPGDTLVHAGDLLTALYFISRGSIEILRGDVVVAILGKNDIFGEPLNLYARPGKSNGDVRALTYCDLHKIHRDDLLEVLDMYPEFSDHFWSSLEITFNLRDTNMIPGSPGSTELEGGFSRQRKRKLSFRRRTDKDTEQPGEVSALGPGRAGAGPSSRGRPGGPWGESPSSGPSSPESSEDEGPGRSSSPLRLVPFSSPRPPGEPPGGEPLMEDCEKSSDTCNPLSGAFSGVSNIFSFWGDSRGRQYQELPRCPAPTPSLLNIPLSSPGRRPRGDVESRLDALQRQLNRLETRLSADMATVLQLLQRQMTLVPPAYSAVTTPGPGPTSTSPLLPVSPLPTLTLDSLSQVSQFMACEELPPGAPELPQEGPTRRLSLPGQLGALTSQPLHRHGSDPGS
Cytochrome P450 3A4, sequence (P08684 whole entry): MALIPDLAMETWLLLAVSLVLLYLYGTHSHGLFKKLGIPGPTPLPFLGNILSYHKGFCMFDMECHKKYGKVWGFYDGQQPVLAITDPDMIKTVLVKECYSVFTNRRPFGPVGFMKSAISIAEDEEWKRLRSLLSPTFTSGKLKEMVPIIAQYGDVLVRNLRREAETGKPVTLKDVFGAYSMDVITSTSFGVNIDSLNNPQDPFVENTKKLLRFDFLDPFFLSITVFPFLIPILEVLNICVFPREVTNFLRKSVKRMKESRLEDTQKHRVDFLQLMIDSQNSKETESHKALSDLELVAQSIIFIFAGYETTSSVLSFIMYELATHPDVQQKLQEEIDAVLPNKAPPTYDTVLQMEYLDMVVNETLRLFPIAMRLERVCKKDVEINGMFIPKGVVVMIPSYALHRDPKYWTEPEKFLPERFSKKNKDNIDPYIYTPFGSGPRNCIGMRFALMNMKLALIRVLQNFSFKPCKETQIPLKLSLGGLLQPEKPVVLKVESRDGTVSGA
Somatostatin receptor type 3, sequence (P32745 whole entry): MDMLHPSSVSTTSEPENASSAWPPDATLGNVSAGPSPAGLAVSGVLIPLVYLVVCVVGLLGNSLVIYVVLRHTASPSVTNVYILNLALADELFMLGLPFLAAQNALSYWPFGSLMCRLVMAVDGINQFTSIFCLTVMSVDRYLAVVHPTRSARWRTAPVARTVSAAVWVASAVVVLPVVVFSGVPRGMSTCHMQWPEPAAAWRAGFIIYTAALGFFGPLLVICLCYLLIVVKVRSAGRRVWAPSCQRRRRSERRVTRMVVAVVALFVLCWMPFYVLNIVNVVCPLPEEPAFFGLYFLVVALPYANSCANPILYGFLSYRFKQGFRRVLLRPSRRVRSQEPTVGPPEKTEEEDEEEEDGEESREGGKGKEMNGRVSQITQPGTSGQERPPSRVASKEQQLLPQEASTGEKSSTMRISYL
Cytochrome P450 2C9, sequence (P11712 whole entry): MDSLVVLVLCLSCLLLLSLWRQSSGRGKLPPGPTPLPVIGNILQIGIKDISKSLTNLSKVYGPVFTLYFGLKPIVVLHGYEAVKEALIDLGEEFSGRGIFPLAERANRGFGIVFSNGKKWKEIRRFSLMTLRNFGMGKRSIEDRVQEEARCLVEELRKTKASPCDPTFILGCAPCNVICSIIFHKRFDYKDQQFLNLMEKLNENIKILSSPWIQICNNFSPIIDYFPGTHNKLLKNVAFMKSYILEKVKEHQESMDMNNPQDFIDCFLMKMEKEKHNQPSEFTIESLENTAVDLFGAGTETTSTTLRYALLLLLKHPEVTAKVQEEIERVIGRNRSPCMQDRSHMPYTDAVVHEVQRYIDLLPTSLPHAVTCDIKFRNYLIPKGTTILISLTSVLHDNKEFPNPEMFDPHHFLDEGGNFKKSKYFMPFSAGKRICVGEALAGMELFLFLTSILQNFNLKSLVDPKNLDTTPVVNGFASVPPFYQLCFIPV
Somatostatin receptor type 5, sequence (P35346 whole entry): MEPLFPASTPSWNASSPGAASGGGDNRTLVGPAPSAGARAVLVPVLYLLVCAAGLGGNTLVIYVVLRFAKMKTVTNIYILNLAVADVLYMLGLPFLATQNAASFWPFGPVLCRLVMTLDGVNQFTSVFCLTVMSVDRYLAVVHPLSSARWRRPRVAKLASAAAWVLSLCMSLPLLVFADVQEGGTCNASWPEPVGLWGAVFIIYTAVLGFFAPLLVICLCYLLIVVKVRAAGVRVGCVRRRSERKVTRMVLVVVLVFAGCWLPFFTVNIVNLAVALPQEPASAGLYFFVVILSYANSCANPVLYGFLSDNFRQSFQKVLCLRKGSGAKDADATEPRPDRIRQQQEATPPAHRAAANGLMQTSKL
Cytochrome P450 2C19, sequence (P33261 whole entry): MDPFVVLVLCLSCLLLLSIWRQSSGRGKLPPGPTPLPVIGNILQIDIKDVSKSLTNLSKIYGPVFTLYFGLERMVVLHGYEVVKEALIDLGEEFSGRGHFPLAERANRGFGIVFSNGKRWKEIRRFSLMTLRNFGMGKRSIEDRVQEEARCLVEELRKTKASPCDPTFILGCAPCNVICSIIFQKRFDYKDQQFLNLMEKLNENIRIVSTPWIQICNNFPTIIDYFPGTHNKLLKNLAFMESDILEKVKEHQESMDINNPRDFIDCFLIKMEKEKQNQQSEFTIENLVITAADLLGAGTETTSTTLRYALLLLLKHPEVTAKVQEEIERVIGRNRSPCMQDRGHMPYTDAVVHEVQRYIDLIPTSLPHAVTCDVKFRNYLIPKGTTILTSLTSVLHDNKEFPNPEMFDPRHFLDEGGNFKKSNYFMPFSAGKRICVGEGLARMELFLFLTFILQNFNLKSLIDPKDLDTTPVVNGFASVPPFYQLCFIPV
Somatostatin receptor type 1, sequence (P30872 whole entry): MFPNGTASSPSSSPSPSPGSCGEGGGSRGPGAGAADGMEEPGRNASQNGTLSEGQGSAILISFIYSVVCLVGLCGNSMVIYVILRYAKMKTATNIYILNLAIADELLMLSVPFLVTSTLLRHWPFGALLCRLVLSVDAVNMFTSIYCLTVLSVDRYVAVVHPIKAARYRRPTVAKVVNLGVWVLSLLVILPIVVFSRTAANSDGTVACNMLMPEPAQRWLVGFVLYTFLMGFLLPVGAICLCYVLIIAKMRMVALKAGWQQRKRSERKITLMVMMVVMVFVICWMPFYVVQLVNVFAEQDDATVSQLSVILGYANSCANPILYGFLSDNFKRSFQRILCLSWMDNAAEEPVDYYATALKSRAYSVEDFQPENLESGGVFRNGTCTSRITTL

With `Cc1cc(Cl)cc(-c2cnc3ncn(-c4cc(O)cc(F)c4)c(=O)c3c2CN(C)C[C@@H]2CCCN2)c1` as the molecule, how does the Cmax [1] read?
Its Cmax is 43 ng/mL.

And the clearance [2]?
The clearance was 73 mL/min/kg.

And the half-life [3]?
Its half-life is 204 min.

And the EC50 [4]?
The EC50 was 7.94 nM.

What about the bioavailability [5] of the same molecule?
The bioavailability was 14%.

What about the AUC(0-inf) [6] of the same molecule?
The AUC(0-inf) was 329 ng·h/mL.

What about the EC50 [7] of the same molecule?
The EC50 was 316 nM.

And the IC50 [8]?
Its IC50 is > 10000 nM.

And the IC50 [9]?
Its IC50 is > 10000 nM.

And the IC50 [10]?
The IC50 was > 10000 nM.

And the Vd [11]?
The Vd was 11.9 L/kg.

And the IC50 [12]?
Its IC50 is 3160 nM.

What about the Activity [13] of the same molecule?
The Activity was “Dose-dependent effect”.

What about the EC50 [14] of the same molecule?
Its EC50 is > 1000 nM.

And the half-life [15]?
Its half-life is 23 min.

What about the half-life [16] of the same molecule?
The half-life was 35 min.
